Measured values reported in patent publication US20250188059A1, “NOVEL COMPOUND AND USE THEREOF FOR INHIBITING CHECKPOINT KINASE 2” (ARUM THERAPEUTICS INC, priority 2022, published 2025).
Where two headings read alike, the source gives them in different places.

How the values were obtained:
[1] = system: human breast cancer cell line MCF-7; test: Cancer cell growth inhibition test (CellTiter-Glo); assay type: cell-based; conditions: MCF-7, 72 hours
Method in brief: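 MCF-7 cells (about 3000/well) pre-incubated 24 hours at 37° C, then exposed 72 hours to serially diluted compound, alone or combined with cisplatin or doxorubicin. Viability read by CellTiter-Glo luminescence as % of DMSO-only wells; values are means of three wells.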

[2] = target: Chk2 kinase (Homo sapiens (Human), UniProt O96017); test: Chk2 kinase inhibitory activity (LanthaScreen TR-FRET); assay type: biochemical; conditions: graded
Chk2 kinase, sequence (O96017 whole entry): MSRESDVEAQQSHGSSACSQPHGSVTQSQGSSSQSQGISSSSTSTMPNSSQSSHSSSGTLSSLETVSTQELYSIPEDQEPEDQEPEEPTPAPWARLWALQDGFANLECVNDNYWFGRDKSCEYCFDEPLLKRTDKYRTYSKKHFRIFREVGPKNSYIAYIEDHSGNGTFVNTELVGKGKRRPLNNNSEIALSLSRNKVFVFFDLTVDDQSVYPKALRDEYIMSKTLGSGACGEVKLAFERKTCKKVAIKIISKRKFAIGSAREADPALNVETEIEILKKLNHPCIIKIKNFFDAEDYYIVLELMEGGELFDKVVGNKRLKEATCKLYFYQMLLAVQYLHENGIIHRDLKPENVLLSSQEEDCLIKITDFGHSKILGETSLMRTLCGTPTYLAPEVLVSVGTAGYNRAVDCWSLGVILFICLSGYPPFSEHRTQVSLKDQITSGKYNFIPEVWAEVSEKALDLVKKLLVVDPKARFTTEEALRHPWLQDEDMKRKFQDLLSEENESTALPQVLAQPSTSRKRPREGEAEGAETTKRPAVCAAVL
Method in brief: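 Recombinant Chk1 or Chk2 was mixed with substrate and compound, and the reaction was started with ATP and run 1 h at room temperature. Phosphorylation was detected with a Tb-labelled anti-CREB pSer133 antibody for 30 min, read as the TR-FRET Em520/Em490 ratio. IC50 was fitted from duplicate-well means.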

[3] = Pharmacokinetics test using mice; assay type: in vivo; conditions: male, Balb/C, mouse, plasma; for Cmax: read-out: C0/Cmax; for Vd: iv, 1 mg/kg
Description: 6 to 8 week-old male Balb/C mice weighing 22-29 g were acclimatized for about 1 week, and then 12 mice for each group were divided into an intravenous administration group and an oral administration group and used in the experiment. The mice were fasted before administration of the compound and were allowed to drink water ad libitum. Feed was provided 2 hours after administration of the compound.
A preparation for intravenous injection (0.2 mg/mL) was prepared by dissolving 1.264 mg of the compound of Example 9 in 6.257 mL of DMSO: a mixed solution of solutol and ethanol (1:1): physiological saline (5:5:90% v/v). A preparation for oral administration (1 mg/mL) was prepared by suspending 5.916 mg of the compound of Example 9 in 5.857 mL of 0.5% methyl cellulose (0.5:99.5% v/v) containing 0.1 Tween 80.
The compound of Example 9 was administered at a dose of 1 mg/kg for intravenous administration and at a dose of 10 mg/kg for oral administration using an oral zonde.
In the case of intravenous administration, blood was collected at 5 minutes, 15 minutes, 30 minutes, 1 hour, 2 hours, 4 hours, 8 hours and 24 hours after administration of the compound. In the case of oral administration, blood was collected at 15 minutes, 30 minutes, 1 hour, 2 hours, 4 hours, 8 hours, 10 hours and 24 hours after administration of the compound. Plasma was separated from the collected blood, and the content of compounds in blood was measured by LC-MS/MS method, and PK parameters were calculated using Phoenix software ver.8.1.

[4] = target: Chk1 kinase (Homo sapiens (Human), UniProt O14757); test: Chk1 kinase inhibitory activity (LanthaScreen TR-FRET); assay type: biochemical; conditions: graded
Chk1 kinase, sequence (O14757 whole entry): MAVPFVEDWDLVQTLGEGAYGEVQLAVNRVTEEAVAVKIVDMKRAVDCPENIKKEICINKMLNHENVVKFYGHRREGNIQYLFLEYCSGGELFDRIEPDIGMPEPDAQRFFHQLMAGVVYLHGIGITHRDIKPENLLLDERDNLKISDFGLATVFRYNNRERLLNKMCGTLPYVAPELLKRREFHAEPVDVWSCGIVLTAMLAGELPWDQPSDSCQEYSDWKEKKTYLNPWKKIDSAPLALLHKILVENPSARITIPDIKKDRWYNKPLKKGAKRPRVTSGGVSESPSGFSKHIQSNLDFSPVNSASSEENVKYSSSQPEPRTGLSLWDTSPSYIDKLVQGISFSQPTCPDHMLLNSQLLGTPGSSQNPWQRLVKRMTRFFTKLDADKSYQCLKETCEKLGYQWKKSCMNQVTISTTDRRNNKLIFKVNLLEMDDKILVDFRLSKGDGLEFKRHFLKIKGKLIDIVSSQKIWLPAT
Description: The compounds of Examples 1 to 66 were diluted at various concentrations and transferred to a 384-well plate by 5 μl, and 10 μl of a mixed solution (2×) of Chk1 kinase (Thermo, P3040) or Chk2 kinase (Thermo, PV3367) and a substrate (Thermo, PV3508) was added to wells treated with the compounds. 5 μl of an ATP solution at a 4× concentration was added to the test well and reacted at room temperature for 1 hour. 20 μl of LanthaScreen Terbium-CREB p-Ser 133 antibody (Thermo, PV3542) was added to the reaction well and incubated at room temperature for 30 minutes. Conversion data was measured by an EnVision 2014 multi label reader (PerkinElmer). The activity for each concentration was determined by the ratio (FRET ratio=FR) of the value obtained by dividing the value at 520 nm by the value at 490 nm among the emission wavelength values for each wavelength (Em520/Em490). The results obtained for each concentration of the compounds were the average values obtained in two wells, and the IC50 values of the compounds were calculated using PRIZM software for analysis of the results. IC50 in Table 7 was graded as follows.

[5] = Homo sapiens, MCF7, 72 h, graded, read-out: Celltiter glo analysis (IC50)

| IC50 [1, 5] [nM] | IC50 [2] [nM] | IC50 [4] [nM] | further results | SMILES |
| --- | --- | --- | --- | --- |
| 10000 to 100000 | 10 to 100 |  | AUC(0-inf) ([3]; IV (1 mg/kg)): 298 ng·h/mL; AUC(0-t) ([3]; IV (1 mg/kg)): 267 ng·h/mL; clearance ([3]; IV (1 mg/kg)): 56.2 mL/min/kg; half-life ([3]; IV (1 mg/kg)): 1.36 h; Cmax ([3]; IV (1 mg/kg)): 231 ng/mL; bioavailability ([3]; PO 10 mg/kg vs IV 1 mg/kg, read-out: Oral bioavailability (% F)): 59%; AUC(0-inf) ([3]; PO (10 mg/kg)): 1770 ng·h/mL; AUC(0-t) ([3]; PO (10 mg/kg)): 1730 ng·h/mL; Tmax ([3]; PO (10 mg/kg)): 0.5 h; half-life ([3]; PO (10 mg/kg)): 1.92 h; Cmax ([3]; PO (10 mg/kg)): 749 ng/mL; Vd ([3]; IV (1 mg/kg), read-out: Vd): 6.59 L/kg; Vd ([3]; IV (1 mg/kg), read-out: Vss): 5.22 L/kg | Nc1ncc(-c2cc(-c3cnn(CC(F)(F)F)c3)ccc2F)nc1C(=O)N[C@@H]1CNC[C@@H](F)C1 [Example 9, 3-amino-6-(2-fluoro-5-(1-(2,2,2-trifluoroethyl)-1H-pyrazol-4-yl)phenyl)-N-((3S,5S)-5-fluoropiperidin-3-yl) pyrazine-2-carboxamide] |
| 10000 to 100000 | 10 to 100 | 100 to 1000 |  | Nc1ncc(-c2cc(-c3cnn(C4CC4)c3)ccc2F)nc1C(=O)N[C@H]1CCCNC1 [Example 31, (S)-3-amino-6-(5-(1-cyclopropyl-1H-pyrazol-4-yl)-2-fluorophenyl)-N-(piperidin-3-yl)pyrazine-2-carboxamide] |
| 10000 to 100000 | > 1000 | > 1000 | IC50 ([1]; Homo sapiens, MCF7, 72 h, alone, read-out: Administered alone (IC50)): 33100 nM; IC50 ([1]; combination with cisplatin, read-out: Administered in combination with cisplatin (IC50)): 4580 nM; IC50 ([1]; combination with doxorubicin, read-out: Administered in combination with doxorubicin (IC50)): 910 nM | CC(C)(O)Cn1cc(-c2cc(-c3cnc(N)c(C(=O)N[C@@H]4CNCC(F)(F)C4)n3)c(F)cn2)cn1 [Example 32, (S)-3-amino-N-(5,5-difluoropiperidin-3-yl)-6-(5-fluoro-2-(1-(2-hydroxy-2-methylpropyl)-1H-pyrazol-4-yl)pyridin-4-yl)pyrazine-2-carboxamide] |
| 10000 to 100000 | 100 to 1000 | > 1000 |  | CC(C)(O)Cn1cc(-c2cc(-c3cnc(N)c(C(=O)N[C@@H]4CNCC(F)(F)C4)n3)ccn2)cn1 [Example 33, (S)-3-amino-N-(5,5-difluoropiperidin-3-yl)-6-(2-(1-(2-hydroxy-2-methylpropyl)-1H-pyrazol-4-yl)pyridin-4-yl)pyrazine-2-carboxamide] |
| 10000 to 100000 | 10 to 100 | > 1000 |  | CC(C)(O)Cn1cc(-c2ccc(F)c(-c3cnc(N)c(C(=O)N[C@@H]4CNC[C@@H](F)C4)n3)c2)cn1 [Example 35, 3-amino-6-(2-fluoro-5-(1-(2-hydroxy-2-methylpropyl)-1H-pyrazol-4-yl)phenyl)-N-((3S,5S)-5-fluoropiperidin-3-yl)pyrazine-2-carboxamide] |
| 10000 to 100000 | > 1000 | > 1000 |  | CC(C)(O)Cn1cc(-c2ccc(F)c(-c3cnc(N)c(C(=O)N[C@@H]4CNCC(F)(F)C4)n3)c2)cn1 [Example 36, (S)-3-amino-N-(5,5-difluoropiperidin-3-yl)-6-(2-fluoro-5-(1-(2-hydroxy-2-methylpropyl)-1H-pyrazol-4-yl)phenyl)pyrazine-2-carboxamide] |
| > 100000 | 10 to 100 | > 1000 |  | Cc1ccc(-c2cnn(CC(C)(C)O)c2)cc1-c1cnc(N)c(C(=O)N[C@@H]2CNC[C@@H](F)C2)n1 [Example 37, 3-amino-N-((3S,5S)-5-fluoropiperidin-3-yl)-6-(5-(1-(2-hydroxy-2-methylpropyl)-1H-pyrazol-4-yl)-2-methylphenyl) pyrazine-2-carboxamide] |
| 10000 to 100000 | > 1000 | > 1000 |  | Cc1ccc(-c2cnn(CC(C)(C)O)c2)cc1-c1cnc(N)c(C(=O)N[C@@H]2CNCC(F)(F)C2)n1 [Example 38, (S)-3-amino-N-(5,5-difluoropiperidin-3-yl)-6-(5-(1-(2-hydroxy-2-methylpropyl)-1H-pyrazol-4-yl)-2-methylphenyl)pyrazine-2-carboxamide] |
| 10000 to 100000 | ≤ 10 | 100 to 1000 |  | Nc1ncc(-c2nccc(-c3cnn(CC(F)(F)F)c3)n2)nc1C(=O)N[C@H]1CCCNC1 [Example 39, (S)-3-amino-N-(piperidin-3-yl)-6-(4-(1-(2,2,2-trifluoroethy)-1H-pyrazol-4-yl)pyrimidin-2-yl)pyrazine-2-carboxamide] |
| 10000 to 100000 | ≤ 10 | 10 to 100 |  | CC1(C)Cc2c(-c3cccc(-c4cnc(N)c(C(=O)N[C@H]5CCCNC5)n4)c3)cnn2C1 [Example 42, (S)-3-amino-6-(3-(5,5-dimethyl-5,6-dihydro-4H-pyrrolo[1,2-b]pyrazol-3-yl)phenyl)-N-(piperidin-3-yl) pyrazine-2-carboxamide] |
| 10000 to 100000 | ≤ 10 | 100 to 1000 |  | CC1(C)Cc2c(-c3ccc(F)c(-c4cnc(N)c(C(=O)N[C@H]5CCCNC5)n4)c3)cnn2C1 [Example 43, (S)-3-amino-6-(5-(5,5-dimethyl-5,6-dihydro-4H-pyrrolo[1,2-b]pyrazol-3-yl)-2-fluorophenyl)-N-(piperidin-3-yl)pyrazine-2-carboxamide] |
| ≤ 10000 | 10 to 100 | ≤ 10 |  | CC1(C)Cc2c(-c3ccc(F)c(-c4cnc(N)c(C(=O)N[C@@H]5CNC[C@@H](F)C5)n4)c3)cnn2C1 [Example 44, 3-amino-6-(5-(5,5-dimethyl-5,6-dihydro-4H-pyrrolo [1,2-b]pyrazol-3-yl)-2-fluorophenyl)-N-((3S,5S)-5-fluoropiperidin-3-yl)pyrazine-2-carboxamide] |
| 10000 to 100000 | ≤ 10 | 100 to 1000 |  | CC1(C)Cc2c(-c3cccc(-c4cnc(N)c(C(=O)N[C@@H]5CNC[C@@H](F)C5)n4)c3)cnn2C1 [Example 45, 3-amino-6-(3-(5,5-dimethyl-5,6-dihydro-4H-pyrrolo[1,2-b]pyrazol-3-yl)phenyl)-N-((3S,5S)-5-fluoropiperidin-3-yl)pyrazine-2-carboxamide] |
| 10000 to 100000 | 10 to 100 | > 1000 |  | CC1(C)Cc2c(-c3ccc(F)c(-c4cnc(N)c(C(=O)N[C@H]5CCC6(CC6)NC5)n4)c3)cnn2C1 [Example 46, (S)-3-amino-6-(5-(5,5-dimethyl-5,6-dihydro-4H-pyrrolo[1,2-b]pyrazol-3-yl)-2-fluorophenyl)-N-(4-azaspiro[2.5]octan-6-yl)pyrazine-2-carboxamide] |
| ≤ 10000 | 10 to 100 | > 1000 |  | CC1(C)Cc2c(-c3cccc(-c4cnc(N)c(C(=O)N[C@@H]5CNCC(F)(F)C5)n4)c3)cnn2C1 [Example 59] |
| 10000 to 100000 | ≤ 10 | > 1000 |  | CC1(C)Cc2c(-c3nccc(-c4cnc(N)c(C(=O)NC5CNC[C@@H](F)C5)n4)n3)cnn2C1 (stereo partly drawn) [Example 64, 3-amino-6-(2-(5,5-dimethyl-5,6-dihydro-4H-pyrrolo[1,2-b]pyrazol-3-yl)pyrimidin-4-yl)-N-((3S,5S)-5-fluoropiperidin-3-y)pyrazine-2-carboxamide] |
